Laboratory results as given in patent US10688088B2 (priority 2015, dated 2020).

System: M. tuberculosis H37 Rv (ATCC 27294)
Experiment: MIC determination in medium 7H9 by Alamar Blue (MABA) method and FIC synergism, standard strain H37Rv
Assay type: cell-based, Mycobacterium tuberculosis

With `CC1COc2c(N3CCN(C)CC3)c(F)cc3c(=O)c(C(=O)O)cn1c23` (centres unmarked) [OFX, ofloxacin] the “MIC 1: MIC of the substance tested alone” value was 1.25 and the “MIC 2: MIC of the substance tested in combination” value (shortened to “MIC 2: MIC of the substance tested”) (combination MFL + OFX) was 0.62.

In the case of `NC(=O)c1cnccn1` [PYR, pyrazinamide], the “MIC 1: MIC of the substance tested alone” value was 100 and the “MIC 2: MIC of the substance tested” value (combination MFL + PYR) was 3.12.

For `OC(c1cc(C(F)(F)F)nc2c(C(F)(F)F)cccc12)C1CCCCN1` (centres unmarked) [Mefloquine, mefloquine], the “MIC 2: MIC of the substance tested” value (combination MEF + CPX) was 0.62, the “MIC 2: MIC of the substance tested” value (combination MEF + LVX) was 0.62 and the “MIC 2: MIC of the substance tested” value (combination MFL + GAT) was 0.12. The “MIC 2: MIC of the substance tested” value (combination MFL + INH) was 0.10, the “MIC 2: MIC of the substance tested” value (combination MFL + LYN) was 0.62 and the “MIC 2: MIC of the substance tested” value (combination MFL + MOX) was 0.15. The “MIC 2: MIC of the substance tested” value (combination MFL + OFX) was 0.62, the “MIC 2: MIC of the substance tested” value (combination MFL + PYR) was 3.12 and the “MIC 2: MIC of the substance tested” value (combination MFL + SPR) was 0.12.

In the case of `NNC(=O)c1ccncc1` [INH, isoniazid], the “MIC 1: MIC of the substance tested alone” value was 0.20 and the “MIC 2: MIC of the substance tested” value (combination MFL + INH) was 0.10.

`COc1c(N2C[C@@H]3CCCN[C@@H]3C2)c(F)cc2c(=O)c(C(=O)O)cn(C3CC3)c12` [MOX, moxifloxacin] was tested, and the “MIC 1: MIC of the substance tested alone” value was 0.25 and the “MIC 2: MIC of the substance tested” value (combination MFL + MOX) was 0.15.

`CC(=O)NC[C@H]1CN(c2ccc(N3CCOCC3)c(F)c2)C(=O)O1` [LYN, linezolid] was tested, and the “MIC 1: MIC of the substance tested alone” value was 0.62 and the “MIC 2: MIC of the substance tested” value (combination MFL + LYN) was 0.62.

In the case of `C[C@@H]1CN(c2c(F)c(N)c3c(=O)c(C(=O)O)cn(C4CC4)c3c2F)C[C@H](C)N1` [SPR, sparfloxacin], the “MIC 1: MIC of the substance tested alone” value was 0.12 and the “MIC 2: MIC of the substance tested” value (combination MFL + SPR) was 0.12.

For `C[C@H]1COc2c(N3CCN(C)CC3)c(F)cc3c(=O)c(C(=O)O)cn1c23` [LVX, levofloxacin], the “MIC 1: MIC of the substance tested alone” value was 0.62 and the “MIC 2: MIC of the substance tested” value (combination MEF + LVX) was 0.62.

In the case of `O=C(O)c1cn(C2CC2)c2cc(N3CCNCC3)c(F)cc2c1=O` [CPX, ciprofloxacin], the “MIC 1: MIC of the substance tested alone” value was 0.62 and the “MIC 2: MIC of the substance tested” value (combination MEF + CPX) was 0.62.

In the case of `COc1c(N2CCNC(C)C2)c(F)cc2c(=O)c(C(=O)O)cn(C3CC3)c12` (centres unmarked) [GAT, gatifloxacin], the “MIC 1: MIC of the substance tested alone” value was 0.12 and the “MIC 2: MIC of the substance tested” value (combination MFL + GAT) was 0.12.

For `CC[C@@H](CO)NCCN[C@@H](CC)CO` [ETB, ethambutol], the “MIC 1: MIC of the substance tested alone” value was 1.25 and the “MIC 2: MIC of the substance tested” value (combination MFL + ETB) was 1.25.
